Measured values taken from PubChem BioAssay (NCI).
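Exposure lasted 48 hours, with cells grown in 96-well plates and compounds tested at five concentrations. GI50 marks 50% less growth. The concentration for full growth arrest is given as TGI.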

Tests used:
Test in all cases: inhibition of tumour cell growth, NCI panel, 48 h
NCI-H522 lung = tested on: NCI-H522 lung
A549 NSCLC = tested on: A549 NSCLC
UACC-257 melanoma = tested on: UACC-257 melanoma
OVCAR-8 ovarian = tested on: OVCAR-8 ovarian
BT-549 breast = tested on: BT-549 breast
MCF7 breast = tested on: MCF7 breast
NCI-H226 lung = tested on: NCI-H226 lung
U251 CNS = tested on: U251 CNS
M19-MEL melanoma = tested on: M19-MEL melanoma
LXFL 529 NSCLC = tested on: LXFL 529 NSCLC

Cc1ccc(C(=O)N=Nc2c(O)[nH]c3ccc(Cl)cc23)cc1
GI50 (NCI-H522 lung): 20.2 µM
TGI (NCI-H522 lung): > 50 µM
GI50 (A549 NSCLC): 22.8 µM
TGI (A549 NSCLC): > 50 µM
GI50 (UACC-257 melanoma): > 50 µM
TGI (UACC-257 melanoma): > 50 µM
GI50 (OVCAR-8 ovarian): 10.8 µM
TGI (OVCAR-8 ovarian): 32.4 µM
GI50 (BT-549 breast): 25 µM
TGI (BT-549 breast): > 50 µM
GI50 (MCF7 breast): 13.5 µM
TGI (MCF7 breast): > 50 µM
GI50 (NCI-H226 lung): 7.4 µM
TGI (NCI-H226 lung): 24.6 µM
GI50 (U251 CNS): 21.5 µM
TGI (U251 CNS): > 50 µM

COc1ccc(-c2nnc(Nc3nc(O)c(C4=c5cc(F)ccc5=NC4=O)s3)o2)cc1
GI50 (NCI-H522 lung): 33.9 µM
TGI (NCI-H522 lung): > 100 µM
GI50 (A549 NSCLC): 64.6 µM
TGI (A549 NSCLC): > 100 µM
GI50 (UACC-257 melanoma): > 100 µM
TGI (UACC-257 melanoma): > 100 µM
GI50 (OVCAR-8 ovarian): 54.4 µM
TGI (OVCAR-8 ovarian): > 100 µM
GI50 (BT-549 breast): 36.5 µM
TGI (BT-549 breast): > 100 µM
GI50 (MCF7 breast): 34.5 µM
TGI (MCF7 breast): > 100 µM
GI50 (NCI-H226 lung): 46.3 µM
TGI (NCI-H226 lung): > 100 µM
GI50 (U251 CNS): 25.3 µM
TGI (U251 CNS): 61.2 µM

CCN1C(=O)N(CC)C2C1NN=c1s/c(=C\c3cccc([N+](=O)[O-])c3)c(=O)n12 (stereo unspecified)
GI50 (NCI-H522 lung): 0.0427 µM
TGI (NCI-H522 lung): 3.4 µM
GI50 (A549 NSCLC): 0.181 µM
TGI (A549 NSCLC): > 100 µM
GI50 (UACC-257 melanoma): > 100 µM
TGI (UACC-257 melanoma): > 100 µM
GI50 (OVCAR-8 ovarian): 0.172 µM
TGI (OVCAR-8 ovarian): > 100 µM
GI50 (BT-549 breast): 0.291 µM
TGI (BT-549 breast): 33.5 µM
GI50 (MCF7 breast): 0.0366 µM
TGI (MCF7 breast): > 100 µM
GI50 (NCI-H226 lung): 8.25 µM
TGI (NCI-H226 lung): > 100 µM
GI50 (U251 CNS): 0.0542 µM
TGI (U251 CNS): > 100 µM

Oc1ccccc1C=Nc1ccccc1N=Cc1ccccc1O.[Cu+2]
GI50 (NCI-H522 lung): 2.55 µM
TGI (NCI-H522 lung): 12.3 µM
GI50 (A549 NSCLC): 5.88 µM
TGI (A549 NSCLC): 18.2 µM
GI50 (UACC-257 melanoma): 4.08 µM
TGI (UACC-257 melanoma): 15.6 µM
GI50 (OVCAR-8 ovarian): 2.48 µM
TGI (OVCAR-8 ovarian): 8.44 µM
GI50 (BT-549 breast): 3.24 µM
TGI (BT-549 breast): 11.9 µM
GI50 (MCF7 breast): 2.34 µM
TGI (MCF7 breast): 14.1 µM
GI50 (NCI-H226 lung): 3.72 µM
TGI (NCI-H226 lung): 16.3 µM
GI50 (U251 CNS): 3.4 µM
TGI (U251 CNS): 14 µM

CCN(CC)CCC(=O)/C=C/c1ccc(C)cc1
TGI (M19-MEL melanoma): 25.4 µM
TGI (A549 NSCLC): 34.5 µM
TGI (UACC-257 melanoma): 30.6 µM
TGI (OVCAR-8 ovarian): 32.4 µM
TGI (NCI-H226 lung): 31.9 µM
TGI (LXFL 529 NSCLC): 20.6 µM
TGI (U251 CNS): 22.3 µM

NC(CO)C(=O)NCC(=O)O (stereo unspecified)
TGI (NCI-H522 lung): > 100 µM
TGI (A549 NSCLC): > 100 µM
TGI (UACC-257 melanoma): > 100 µM
TGI (OVCAR-8 ovarian): > 100 µM
TGI (BT-549 breast): > 100 µM
TGI (MCF7 breast): > 100 µM
TGI (NCI-H226 lung): > 100 µM
TGI (U251 CNS): > 100 µM

CC(=O)/C(=C\c1c(-c2ccccc2)[nH]c2ccccc12)S(=O)(=O)c1ccccc1
GI50 (NCI-H522 lung): 1.17 µM
TGI (NCI-H522 lung): 4.35 µM
GI50 (A549 NSCLC): 6.73 µM
TGI (A549 NSCLC): 41.9 µM
GI50 (UACC-257 melanoma): 2.23 µM
TGI (UACC-257 melanoma): 8.58 µM
GI50 (OVCAR-8 ovarian): 2.51 µM
TGI (OVCAR-8 ovarian): 9.89 µM
GI50 (BT-549 breast): 1.76 µM
TGI (BT-549 breast): 11 µM
GI50 (MCF7 breast): 0.903 µM
TGI (MCF7 breast): 9.36 µM
GI50 (NCI-H226 lung): 1.92 µM
TGI (NCI-H226 lung): 5.21 µM
GI50 (U251 CNS): 1.2 µM
TGI (U251 CNS): 3.62 µM

CN(C)c1ccc(C(=C2C=CC(=[N+](C)C)C=C2)c2ccccc2Cl)cc1
GI50 (NCI-H522 lung): 0.268 µM
TGI (NCI-H522 lung): 0.925 µM
GI50 (A549 NSCLC): 0.248 µM
TGI (A549 NSCLC): 4.24 µM
GI50 (UACC-257 melanoma): 0.528 µM
TGI (UACC-257 melanoma): 1.73 µM
GI50 (OVCAR-8 ovarian): 0.306 µM
TGI (OVCAR-8 ovarian): 1.66 µM
GI50 (BT-549 breast): 0.373 µM
TGI (BT-549 breast): 2.56 µM
GI50 (MCF7 breast): 0.237 µM
TGI (MCF7 breast): 0.899 µM
GI50 (NCI-H226 lung): 0.43 µM
TGI (NCI-H226 lung): 2 µM
GI50 (U251 CNS): 0.127 µM
TGI (U251 CNS): 1.14 µM
